# Results taken from publication PMC3921138, “Identification and Biochemical Characterization of Four Wood-Associated Glucuronoxylan Methyltransferases in Populus” (PLoS ONE, 2014).
# Legend:
# Assay in all cases: radiometric […]-methyl transfer, Lineweaver-Burk
# Type in all cases: biochemical
# Details in all cases: co-substrate S-[14C-methyl]adenosylmethionine; 100 mM Tris-HCl pH 8.0, 1 mM CoCl2, 0.5% Triton X-100; temperature of kinetic assay not stated; read-out: apparent K m
# PtrGXM4 = target: T1, PtrGXM4 (Populus trichocarpa, UniProt W8JN21)
# T1 construct: gene GXM4; transmembrane domain removed; E. coli; full-length start MRSKNQS, recombinant start SPRPNSS, C-terminus SGKPFCP (translated from primers)
# T1 sequence (W8JN21 34-301): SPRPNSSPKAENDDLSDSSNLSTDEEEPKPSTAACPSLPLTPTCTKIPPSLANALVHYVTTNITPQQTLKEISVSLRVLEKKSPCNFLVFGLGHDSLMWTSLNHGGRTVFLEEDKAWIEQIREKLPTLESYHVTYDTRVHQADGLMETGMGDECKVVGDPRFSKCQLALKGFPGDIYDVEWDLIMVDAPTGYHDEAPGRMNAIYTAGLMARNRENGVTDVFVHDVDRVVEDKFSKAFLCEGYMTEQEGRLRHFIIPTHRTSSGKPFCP
# PtrGXM3 = target: T2, PtrGXM3 (Populus trichocarpa, UniProt A9PC88)
# T2 construct: gene GXM3; transmembrane domain removed; E. coli; full-length start MRPNKNQ, recombinant start SSPRSNP, C-terminus SGRPFCP (translated from primers)
# T2 sequence (A9PC88 34-304): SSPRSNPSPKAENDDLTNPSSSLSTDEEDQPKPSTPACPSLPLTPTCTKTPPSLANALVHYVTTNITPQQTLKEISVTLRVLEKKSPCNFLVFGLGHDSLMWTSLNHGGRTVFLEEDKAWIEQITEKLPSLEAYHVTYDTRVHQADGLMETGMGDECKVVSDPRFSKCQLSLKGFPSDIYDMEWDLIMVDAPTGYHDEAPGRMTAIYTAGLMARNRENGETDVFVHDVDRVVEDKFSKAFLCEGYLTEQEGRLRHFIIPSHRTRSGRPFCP
# PtrGXM1 = target: T3, PtrGXM1 (Populus trichocarpa, UniProt W8JDL1)
# T3 construct: gene GXM1; transmembrane domain removed; E. coli; full-length start MRPKGQ, recombinant start PSSQESP, C-terminus DRPFCPE (translated from primers)
# T3 sequence (W8JDL1 33-288): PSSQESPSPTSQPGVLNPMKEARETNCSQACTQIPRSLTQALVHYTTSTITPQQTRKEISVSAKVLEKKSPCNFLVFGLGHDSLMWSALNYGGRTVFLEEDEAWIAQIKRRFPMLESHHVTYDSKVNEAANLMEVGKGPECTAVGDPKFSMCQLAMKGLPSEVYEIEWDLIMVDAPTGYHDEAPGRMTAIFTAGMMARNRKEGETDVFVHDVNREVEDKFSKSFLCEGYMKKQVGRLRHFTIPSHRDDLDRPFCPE
# PtrGXM2 = target: T4, PtrGXM2 (Populus trichocarpa, UniProt W8JCL4)
# T4 construct: gene GXM2; transmembrane domain removed; E. coli; full-length start MRPKSQQ, recombinant start SSSQESS, C-terminus DRPFCPE (translated from primers)
# T4 sequence (W8JCL4 33-288): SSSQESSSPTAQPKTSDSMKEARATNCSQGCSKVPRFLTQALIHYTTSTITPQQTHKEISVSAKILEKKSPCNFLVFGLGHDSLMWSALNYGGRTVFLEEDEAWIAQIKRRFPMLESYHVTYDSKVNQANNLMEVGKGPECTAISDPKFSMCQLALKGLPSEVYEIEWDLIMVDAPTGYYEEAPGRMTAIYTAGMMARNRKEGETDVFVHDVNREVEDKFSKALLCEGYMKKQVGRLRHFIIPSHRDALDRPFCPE
substance,measurement,setting,value
GlcA-substituted Xyl4,Km,PtrGXM4,290 µM
same,Km,PtrGXM3,300 µM
same,Km,PtrGXM1,3250 µM
same,Km,PtrGXM2,3980 µM
